According to ChEMBL document CHEMBL1201861, “Genomics of Drug Sensitity in Cancer screening data, Wellcome Trust Sanger Institute”:

What was measured:
Test in all cases: cells
Assay type in all cases: functional, cell-based, Homo sapiens
[1] = system: OVCAR-8;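 further: growth inhibition of human OVCAR-8 cells, read out by a cell viability assay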
Description: SANGER: Inhibition of human OVCAR-8 cell growth in a cell viability assay.

[2] = system: ChaGo-K-1;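 further: growth inhibition of ChaGo-K-1 cells, read out with a cell viability assay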
Description: SANGER: Inhibition of human ChaGo-K-1 cell growth in a cell viability assay.

[3] = system: SW626;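 further: growth inhibition of SW626 cells, measured with a cell viability assay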
Description: SANGER: Inhibition of human SW626 cell growth in a cell viability assay.

[4] = system: KYSE-510;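 further: cell viability readout used to measure how strongly growth of the cell line is suppressed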
Description: SANGER: Inhibition of human KYSE-510 cell growth in a cell viability assay.

[5] = system: MEL-HO
Description: SANGER: Inhibition of human MEL-HO cell growth in a cell viability assay.

[6] = system: NCI-H1651;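 further: Read-out is a cell viability assay, with IC50 expressing inhibition of NCI-H1651 cell growth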
Description: SANGER: Inhibition of human NCI-H1651 cell growth in a cell viability assay.

[7] = system: KOSC-2;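 further: growth inhibition of KOSC-2 cells, read out by a cell viability assay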
Description: SANGER: Inhibition of human KOSC-2 cell growth in a cell viability assay.

[8] = system: KYSE-180;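 further: growth inhibition of KYSE-180 cells, read out with a cell viability assay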
Description: SANGER: Inhibition of human KYSE-180 cell growth in a cell viability assay.

[9] = system: Daoy;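 further: daoy cell growth inhibition, read out as cell viability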
Description: SANGER: Inhibition of human Daoy cell growth in a cell viability assay.

[10] = system: 647-V;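 further: growth inhibition of 647-V cells, read out with a cell viability assay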
Description: SANGER: Inhibition of human 647-V cell growth in a cell viability assay.

[11] = system: HCT-116
Description: SANGER: Inhibition of human HCT-116 cell growth in a cell viability assay.

[12] = system: U-118-MG
Description: SANGER: Inhibition of human U-118-MG cell growth in a cell viability assay.

[13] = system: HPAF-II;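 further: growth inhibition of HPAF-II cells, read out with a cell viability assay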
Description: SANGER: Inhibition of human HPAF-II cell growth in a cell viability assay.

[14] = system: HCC1806;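 further: growth inhibition of the cancer cell line, determined with a cell viability assay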
Description: SANGER: Inhibition of human HCC1806 cell growth in a cell viability assay.

[15] = system: SNU-423
Description: SANGER: Inhibition of human SNU-423 cell growth in a cell viability assay.

[16] = system: PFSK-1;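 further: cell viability assay measuring how strongly compounds suppress growth of human PFSK-1 cells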
Description: SANGER: Inhibition of human PFSK-1 cell growth in a cell viability assay.

[17] = system: HN
Description: SANGER: Inhibition of human HN cell growth in a cell viability assay.

[18] = system: KYSE-70 cell line;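 further: cell viability assay read-out, with IC50 expressing suppression of KYSE-70 cell growth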
Description: SANGER: Inhibition of human KYSE-70 cell growth in a cell viability assay.

[19] = system: SF-295;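 further: growth inhibition of SF-295 cells, read out with a cell viability assay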
Description: SANGER: Inhibition of human SF295 cell growth in a cell viability assay.

[20] = system: SK-OV-3;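 further: growth inhibition of SK-OV-3 human cells, read out with a cell viability assay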
Description: SANGER: Inhibition of human SK-OV-3 cell growth in a cell viability assay.

[21] = system: G-361
[22] = system: SNU-449
Description: SANGER: Inhibition of human SNU-449 cell growth in a cell viability assay.

[23] = system: M059J;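 further: growth inhibition of M059J cells, read out with a cell viability assay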
Description: SANGER: Inhibition of human M059J cell growth in a cell viability assay.

[24] = system: KYSE-520 cell line;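 further: growth inhibition of human KYSE-520 cells, read out with a viability assay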
Description: SANGER: Inhibition of human KYSE-520 cell growth in a cell viability assay.

[25] = system: S-117
Description: SANGER: Inhibition of human S-117 cell growth in a cell viability assay.

[26] = system: YKG-1;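 further: cell growth inhibition, read out with a viability assay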
Description: SANGER: Inhibition of human YKG-1 cell growth in a cell viability assay.

[27] = system: COLO-678
Description: SANGER: Inhibition of human COLO-678 cell growth in a cell viability assay.

[28] = system: TCC-SUP;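 further: growth inhibition of TCC-SUP cells, read out with a cell viability assay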
Description: SANGER: Inhibition of human TCCSUP cell growth in a cell viability assay.

[29] = system: Hs-578T
Description: SANGER: Inhibition of human Hs-578-T cell growth in a cell viability assay.

[30] = system: SK-MEL-28;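 further: growth inhibition of human SK-MEL-28 cells, read out with a cell viability assay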
Description: SANGER: Inhibition of human SK-MEL-28 cell growth in a cell viability assay.

[31] = system: NCI-H1755;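 further: cell viability readout used to measure growth inhibition of NCI-H1755 cells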
Description: SANGER: Inhibition of human NCI-H1755 cell growth in a cell viability assay.

[32] = system: COLO-741
Description: SANGER: Inhibition of human COLO-741 cell growth in a cell viability assay.

[33] = system: NCI-H522; details: Homo sapiens, NCI-H522;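 further: cell viability assay measuring growth inhibition of human NCI-H522 cells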
Description: SANGER: Inhibition of human NCI-H522 cell growth in a cell viability assay.

CISPLATIN
IC50 ([1]; ovcar-8): 19.9 µM
IC50 ([2]; chago-k-1): 15.2 µM
IC50 ([3]; sw626): 33.1 µM
IC50 ([4]; kyse-510): 3.38 µM
IC50 ([5]; mel-ho): 1070 nM
IC50 ([6]; nci-h1651): 7.06 µM
IC50 ([7]; kosc-2): 2910 nM
IC50 ([8]; kyse-180): 5.82 µM
IC50 ([9]; daoy): 1510 nM
IC50 ([10]; 647-v): 114 µM
IC50 ([11]; hct-116): 8680 nM
IC50 ([12]; u-118-mg): 16.8 µM
IC50 ([13]; hpaf-ii): 114 µM
IC50 ([14]; hcc1806): 7.33 µM
IC50 ([15]; snu-423): 111 µM
IC50 ([16]; pfsk-1): 37.7 µM
IC50 ([17]; hn): 36000 nM
IC50 ([18]; kyse-70): 48.7 µM
IC50 ([19]; sf-295): 9.34 µM
IC50 ([20]; sk-ov-3): 614 µM
IC50 ([21]; g-361): 672 µM
IC50 ([22]; snu-449): 72 µM
IC50 ([23]; m059j): 10.4 µM
IC50 ([24]; kyse-520): 21.8 µM
IC50 ([25]; s-117): 4.53 µM
IC50 ([26]; ykg-1): 10.3 µM
IC50 ([27]; colo-678): 621 µM
IC50 ([28]; tcc-sup): 8.5 µM
IC50 ([29]; hs-578-t): 11.3 µM
IC50 ([30]; sk-mel-28): 22.2 µM
IC50 ([31]; nci-h1755): 207 µM
IC50 ([32]; colo-741): 28.7 µM

COc1cc2c(Nc3ccc(NC(=O)c4ccccc4)cc3)ncnc2cc1OCCCN1CCOCC1
IC50 ([1]; Homo sapiens, OVCAR-8): > 4 µM
IC50 ([2]; Homo sapiens, ChaGo-K-1): > 4 µM
IC50 ([3]; Homo sapiens, SW626): > 4 µM
IC50 ([4]; Homo sapiens, KYSE-510): 3.64 µM
IC50 ([5]; Homo sapiens, MEL-HO): > 4000 nM
IC50 ([6]; Homo sapiens, NCI-H1651): 3.74 µM
IC50 ([7]; Homo sapiens, KOSC-2): > 4000 nM
IC50 ([8]; Homo sapiens, KYSE-180): > 4 µM
IC50 ([9]; Homo sapiens, Daoy): > 4000 nM
IC50 [33]: > 4 µM
IC50 ([10]; Homo sapiens, 647-V): > 4 µM
IC50 ([11]; Homo sapiens, HCT-116): 1810 nM
IC50 ([12]; Homo sapiens, U-118-MG): > 4 µM
IC50 ([13]; Homo sapiens, HPAF-II): > 4 µM
IC50 ([14]; Homo sapiens, HCC1806): > 4 µM
IC50 ([15]; Homo sapiens, SNU-423): > 4 µM
IC50 ([16]; Homo sapiens, PFSK-1): > 4 µM
IC50 ([17]; Homo sapiens, HN): 1930 nM
IC50 ([18]; Homo sapiens, KYSE-70): > 4 µM
IC50 ([19]; Homo sapiens, SF-295): > 4 µM
IC50 ([20]; Homo sapiens, SK-OV-3): > 4 µM
IC50 ([22]; Homo sapiens, SNU-449): > 4 µM
IC50 ([23]; Homo sapiens, M059J): > 4 µM
IC50 ([24]; Homo sapiens, KYSE-520): > 4 µM
IC50 ([25]; Homo sapiens, S-117): > 4 µM
IC50 ([26]; Homo sapiens, YKG-1): 3.14 µM
IC50 ([27]; Homo sapiens, COLO-678): > 4 µM
IC50 ([28]; Homo sapiens, TCC-SUP): > 4 µM
IC50 ([29]; Homo sapiens, Hs-578T): > 4 µM
IC50 ([30]; Homo sapiens, SK-MEL-28): > 4 µM
IC50 ([31]; Homo sapiens, NCI-H1755): > 4 µM
IC50 ([32]; Homo sapiens, COLO-741): > 4 µM

CO[C@H]1C[C@@H]2CC[C@@H](C)[C@@](O)(O2)C(=O)C(=O)N2CCCC[C@H]2C(=O)O[C@H]([C@H](C)C[C@@H]2CC[C@@H](OC(=O)C(C)(CO)CO)[C@H](OC)C2)CC(=O)[C@H](C)/C=C(\C)[C@@H](O)[C@@H](OC)C(=O)[C@H](C)C[C@H](C)/C=C/C=C/C=C/1C [TEMSIROLIMUS]
IC50 ([1]; Homo sapiens, OVCAR-8): 0.136 µM
IC50 ([2]; Homo sapiens, ChaGo-K-1): > 0.2 µM
IC50 ([3]; Homo sapiens, SW626): > 0.2 µM
IC50 ([4]; Homo sapiens, KYSE-510): > 0.2 µM
IC50 ([5]; Homo sapiens, MEL-HO): 33.6 nM
IC50 ([6]; Homo sapiens, NCI-H1651): > 0.2 µM
IC50 ([7]; Homo sapiens, KOSC-2): 167 nM
IC50 ([8]; Homo sapiens, KYSE-180): > 0.2 µM
IC50 ([9]; Homo sapiens, Daoy): 51.7 nM
IC50 ([10]; Homo sapiens, 647-V): > 0.2 µM
IC50 ([11]; Homo sapiens, HCT-116): > 200 nM
IC50 ([12]; Homo sapiens, U-118-MG): 0.0167 µM
IC50 ([13]; Homo sapiens, HPAF-II): > 0.2 µM
IC50 ([14]; Homo sapiens, HCC1806): > 0.2 µM
IC50 ([15]; Homo sapiens, SNU-423): 0.173 µM
IC50 ([16]; Homo sapiens, PFSK-1): 0.0277 µM
IC50 ([17]; Homo sapiens, HN): > 200 nM
IC50 ([18]; Homo sapiens, KYSE-70): > 0.2 µM
IC50 ([19]; Homo sapiens, SF-295): 0.0605 µM
IC50 ([20]; Homo sapiens, SK-OV-3): > 0.2 µM
IC50 ([21]; Homo sapiens, G-361): 0.146 µM
IC50 ([22]; Homo sapiens, SNU-449): > 0.2 µM
IC50 ([23]; Homo sapiens, M059J): 0.118 µM
IC50 ([24]; Homo sapiens, KYSE-520): 0.139 µM
IC50 ([25]; Homo sapiens, S-117): 0.105 µM
IC50 ([26]; Homo sapiens, YKG-1): > 0.2 µM
IC50 ([27]; Homo sapiens, COLO-678): > 0.2 µM
IC50 ([28]; Homo sapiens, TCC-SUP): 0.0823 µM
IC50 ([29]; Homo sapiens, Hs-578T): 0.0659 µM
IC50 ([30]; Homo sapiens, SK-MEL-28): 0.131 µM
IC50 ([31]; Homo sapiens, NCI-H1755): > 0.2 µM
IC50 ([32]; Homo sapiens, COLO-741): > 0.2 µM

CC1(C)CNc2cc(NC(=O)c3cccnc3NCc3ccncc3)ccc21 [MOTESANIB]
IC50 ([1]; Homo sapiens, OVCAR-8): > 2 µM
IC50 ([2]; Homo sapiens, ChaGo-K-1): > 2 µM
IC50 ([3]; Homo sapiens, SW626): > 2 µM
IC50 ([4]; Homo sapiens, KYSE-510): > 2 µM
IC50 ([5]; Homo sapiens, MEL-HO): > 2000 nM
IC50 ([6]; Homo sapiens, NCI-H1651): > 2 µM
IC50 ([7]; Homo sapiens, KOSC-2): > 2000 nM
IC50 ([8]; Homo sapiens, KYSE-180): > 2 µM
IC50 ([9]; Homo sapiens, Daoy): > 2000 nM
IC50 [33]: > 2 µM
IC50 ([10]; Homo sapiens, 647-V): > 2 µM
IC50 ([11]; Homo sapiens, HCT-116): > 2000 nM
IC50 ([12]; Homo sapiens, U-118-MG): > 2 µM
IC50 ([13]; Homo sapiens, HPAF-II): > 2 µM
IC50 ([14]; Homo sapiens, HCC1806): > 2 µM
IC50 ([15]; Homo sapiens, SNU-423): > 2 µM
IC50 ([16]; Homo sapiens, PFSK-1): > 2 µM
IC50 ([17]; Homo sapiens, HN): > 2000 nM
IC50 ([18]; Homo sapiens, KYSE-70): > 2 µM
IC50 ([19]; Homo sapiens, SF-295): > 2 µM
IC50 ([20]; Homo sapiens, SK-OV-3): > 2 µM
IC50 ([22]; Homo sapiens, SNU-449): > 2 µM
IC50 ([23]; Homo sapiens, M059J): > 2 µM
IC50 ([24]; Homo sapiens, KYSE-520): > 2 µM
IC50 ([25]; Homo sapiens, S-117): > 2 µM
IC50 ([26]; Homo sapiens, YKG-1): > 2 µM
IC50 ([27]; Homo sapiens, COLO-678): > 2 µM
IC50 ([28]; Homo sapiens, TCC-SUP): > 2 µM
IC50 ([29]; Homo sapiens, Hs-578T): > 2 µM
IC50 ([30]; Homo sapiens, SK-MEL-28): > 2 µM
IC50 ([31]; Homo sapiens, NCI-H1755): > 2 µM
IC50 ([32]; Homo sapiens, COLO-741): > 2 µM
